Laboratory results published in ChEMBL document CHEMBL4219265, “Piperlongumine derivative, CG-06, inhibits STAT3 activity by direct binding to STAT3 and regulating the reactive oxygen species in DU145 prostate carcinoma cells” (Bioorg Med Chem Lett, 2018).

Legend:
LNCaP = assay: Growth inhibition of human LNCAP cells after 48 hrs by WST-1 assay; assay type: functional
[1] = molecular target: T1, Signal transducer and activator of transcription 3 (Homo sapiens, UniProt P40763); assay: Inhibition of STAT3 phosphorylation at Tyr705 residues in human DU145 cells assessed as ratio of phosphorylated STAT3 protein level to GAPDH protein level at 0.5 uM after 24 hrs by Western blot analysis (reference value: 1); assay type: cell-based
DU-145 [2] = assay: Effect on total STAT3 protein level in human DU145 cells assessed as ratio of STAT3 protein level to GAPDH protein level at 5 uM after 24 hrs by Western blot analysis (reference value: 1); assay type: ADME, cell-based; details: du-145, 24 h
[3] = molecular target: T1, Signal transducer and activator of transcription 3; assay: Inhibition of STAT3 phosphorylation in human LNCAP cells assessed as ratio of phosphorylated STAT3 protein level to GAPDH protein level at 5 uM after 12 hrs by Western blot analysis (reference value: 1); assay type: cell-based
[4] = molecular target: T1, Signal transducer and activator of transcription 3; assay: Inhibition of IL-6-mediated STAT3 phosphorylation in human LNCAP cells assessed as ratio of phosphorylated STAT3 protein level to GAPDH protein level at 5 uM preincubated for 12 hrs followed by IL-6 stimulation for 30 mins by Western blot analysis (reference value: 7.5); assay type: cell-based
DU-145 [5] = assay: Cell cycle arrest in human DU145 cells assessed as accumulation at G0/G1 phase at 5 uM after 24 hrs by flow cytometry (reference value: 24.07%); assay type: functional
[6] = molecular target: T1, Signal transducer and activator of transcription 3; assay: Binding affinity to STAT3 in human DU145 cell lysates assessed as reduction in pronase-induced STAT3 digestion by measuring ratio of STAT3 protein level to GAPDH protein level at 50 uM incubated for 1 hr followed by 0.01% pronase addition for 10 mins by Western blot analysis (reference value: 0.7)
[7] = molecular target: T1, Signal transducer and activator of transcription 3; assay: Stabilization of STAT3 in human DU145 cell lysates by measuring ratio of STAT3 protein level to GAPDH protein level at 50 uM incubated for 1 hr in absence of pronase by Western blot analysis (reference value: 1)
[8] = molecular target: T1, Signal transducer and activator of transcription 3; assay: Binding affinity to STAT3 in human DU145 cell lysates assessed as reduction in pronase-induced STAT3 digestion by measuring ratio of STAT3 protein level to GAPDH protein level at 10 uM incubated for 1 hr in absence of pronase by Western blot analysis (reference value: 1)
[9] = molecular target: T1, Signal transducer and activator of transcription 3; assay: Binding affinity to STAT3 in human DU145 cell lysates assessed as reduction in pronase-induced STAT3 digestion by measuring ratio of STAT3 protein level to GAPDH protein level at 50 uM incubated for 1 hr followed by 0.05% pronase addition for 10 mins by Western blot analysis (reference value: 1)
[10] = molecular target: T1, Signal transducer and activator of transcription 3; assay: Binding affinity to STAT3 in human DU145 cell lysates assessed as reduction in pronase-induced STAT3 digestion by measuring ratio of STAT3 protein level to GAPDH protein level at 100 uM incubated for 1 hr followed by 0.05% pronase addition for 10 mins by Western blot analysis (reference value: 1)
[11] = molecular target: T1, Signal transducer and activator of transcription 3; assay: Inhibition of STAT3-induced ERK1/2 phosphorylation in human DU145 cells assessed as ratio of phosphorylated ERK1/2 protein level to GAPDH protein level at 5 uM after 1 hr by Western blot analysis (reference value: 1); assay type: cell-based
[12] = molecular target: T1, Signal transducer and activator of transcription 3; assay: Inhibition of STAT3-induced ERK1/2 phosphorylation in human DU145 cells assessed as ratio of phosphorylated ERK1/2 protein level to GAPDH protein level at 5 uM after 12 hrs by Western blot analysis (reference value: 1); assay type: cell-based
DU-145 [13] = assay: Effect on total ERK1/2 protein level in human DU145 cells assessed as ratio of ERK1/2 protein level to GAPDH protein level at 5 uM after 0.5 hrs by Western blot analysis (reference value: 1); assay type: ADME, cell-based; details: du-145, 0.5 h
DU-145 [14] = assay: Effect on total ERK1/2 protein level in human DU145 cells assessed as ratio of ERK1/2 protein level to GAPDH protein level at 5 uM after 1 hr by Western blot analysis (reference value: 1); assay type: ADME, cell-based; details: du-145, 1 h
DU-145 [15] = assay: Effect on total ERK1/2 protein level in human DU145 cells assessed as ratio of ERK1/2 protein level to GAPDH protein level at 5 uM after 3 hrs by Western blot analysis (reference value: 1); assay type: ADME, cell-based; details: du-145, 3 h
DU-145 [16] = assay: Effect on total ERK1/2 protein level in human DU145 cells assessed as ratio of ERK1/2 protein level to GAPDH protein level at 5 uM after 6 hrs by Western blot analysis (reference value: 1); assay type: ADME, cell-based; details: du-145, 6 h
[17] = molecular target: T1, Signal transducer and activator of transcription 3; assay: Inhibition of STAT3 in human DU145 cells assessed as increase in ERK1/2 phosphorylation at 5 uM by Western blot analysis; assay type: cell-based; details: TDE = time-dependent effect

T1 sequence (P40763 whole entry): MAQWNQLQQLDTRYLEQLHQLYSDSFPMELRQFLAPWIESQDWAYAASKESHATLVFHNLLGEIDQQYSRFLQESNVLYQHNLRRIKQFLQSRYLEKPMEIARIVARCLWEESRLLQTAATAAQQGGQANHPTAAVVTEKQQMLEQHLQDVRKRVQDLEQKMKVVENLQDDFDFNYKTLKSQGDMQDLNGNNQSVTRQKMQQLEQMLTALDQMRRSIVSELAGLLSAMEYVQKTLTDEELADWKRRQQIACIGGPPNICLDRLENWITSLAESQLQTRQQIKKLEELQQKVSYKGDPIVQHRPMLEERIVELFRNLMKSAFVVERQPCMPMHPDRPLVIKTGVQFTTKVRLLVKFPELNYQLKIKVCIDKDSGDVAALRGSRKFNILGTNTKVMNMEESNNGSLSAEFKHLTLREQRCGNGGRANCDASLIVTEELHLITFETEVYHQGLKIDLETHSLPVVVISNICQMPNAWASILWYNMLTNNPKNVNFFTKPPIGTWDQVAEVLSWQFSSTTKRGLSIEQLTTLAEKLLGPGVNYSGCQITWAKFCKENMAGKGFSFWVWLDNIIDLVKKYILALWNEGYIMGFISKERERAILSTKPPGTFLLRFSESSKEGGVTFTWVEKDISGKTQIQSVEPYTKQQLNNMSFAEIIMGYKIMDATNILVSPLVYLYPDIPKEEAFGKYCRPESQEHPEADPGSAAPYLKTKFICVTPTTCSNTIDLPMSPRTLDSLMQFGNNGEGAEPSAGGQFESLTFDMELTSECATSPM

GI50 (LNCaP): 7.7 µM | Ratio [1]: 0.7 | Ratio (DU-145 [2]): 0.7 | Ratio [3]: 1 | Ratio [4]: 1.6 | Ratio [6]: 0.6 | Ratio [7]: 1 | Ratio [8]: 1.1 | Ratio [9]: 2.2 | Ratio [10]: 2.3 | Ratio [11]: 1.8 | Ratio [12]: 2.3 | Ratio (DU-145 [13]): 1.1 | Ratio (DU-145 [14]): 1.1 | Ratio (DU-145 [15]): 1.1 | Ratio (DU-145 [16]): 1 | inhibition [17]: Tde
Compound: C=C(C)C(=O)N(Cc1ccc(Br)cc1)C(=O)/C=C/c1cc(OC)c(OC)c(OC)c1
Activity (DU-145 [5]): 34.79%
